Reference: ChEMBL document CHEMBL1201862, “PubChem BioAssay data set” (2004)
Active and inactive are the calls of the source.

Tests used:
[1] = tested on: BJ; test: cytotoxicity toward BJ-TERT fibroblasts, dose response, cell-based, RAS-independent, luminescence (AID 1933); type: functional; details: Homo sapiens
[2] = tested on: BJ; test: cells; type: functional, cell-based; details: Homo sapiens
[3] = tested on: BJ; test: cytotoxicity toward BJ-TERT-LT-ST fibroblasts, dose response, cell-based, RAS-independent, luminescence (AID 1935); type: functional; details: Homo sapiens;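 also: BJ fibroblasts immortalized with TERT plus LT and ST oncogenes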
[4] = cytotoxicity toward DRD oncogenic fibroblasts, dose response, cell-based, non-viral oncogenic, luminescence (AID 1934); type: functional; details: Homo sapiens
[5] = target: T1, CAAX prenyl protease 2 (Saccharomyces cerevisiae S288c, UniProt Q03530); type: biochemical
T1 sequence (Q03530 whole entry): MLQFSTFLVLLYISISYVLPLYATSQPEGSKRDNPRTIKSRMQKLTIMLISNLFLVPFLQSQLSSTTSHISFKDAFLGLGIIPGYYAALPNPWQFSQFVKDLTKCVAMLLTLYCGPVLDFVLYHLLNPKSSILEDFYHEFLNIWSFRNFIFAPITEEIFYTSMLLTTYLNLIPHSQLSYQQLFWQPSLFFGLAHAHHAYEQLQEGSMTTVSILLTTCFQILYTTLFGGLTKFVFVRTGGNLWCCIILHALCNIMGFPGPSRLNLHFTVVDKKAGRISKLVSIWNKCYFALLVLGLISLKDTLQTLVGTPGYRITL

[6] = mammalian cell cytotoxicity, dose response, cytotoxicity control, plate reader, cherry-pick samples (AID 504397); type: functional, cell-based
[7] = target: CAAX prenyl protease 2 (Homo sapiens, UniProt Q9Y256); test: human Rce1 protease inhibitors, dose response, biochemical, yeast membranes, quenched-peptide fluorescence, cherry-pick (AID 588849)
CAAX prenyl protease 2 (Homo sapiens, UniProt Q9Y256), sequence (Q9Y256 whole entry): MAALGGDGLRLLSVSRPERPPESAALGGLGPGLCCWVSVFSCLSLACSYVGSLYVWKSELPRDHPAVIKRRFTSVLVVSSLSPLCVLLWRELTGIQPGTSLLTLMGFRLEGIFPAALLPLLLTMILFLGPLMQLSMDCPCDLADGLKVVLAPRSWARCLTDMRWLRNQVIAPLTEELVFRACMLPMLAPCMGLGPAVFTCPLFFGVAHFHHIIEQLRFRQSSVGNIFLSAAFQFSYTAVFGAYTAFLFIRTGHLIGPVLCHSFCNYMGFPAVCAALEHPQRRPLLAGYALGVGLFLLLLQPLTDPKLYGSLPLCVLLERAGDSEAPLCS

[8] = target: Peroxisome proliferator-activated receptor gamma (Homo sapiens, UniProt P37231); test: PPARg partial agonists, dose response, cell-based, luminescence, assay provider (AID 504447); type: functional
[9] = target: Peroxisome proliferator-activated receptor alpha (Homo sapiens, UniProt Q07869); test: Late stage assay provider counterscreen for partial agonists of the peroxisome proliferator-activated receptor gamma (PPARg): Luminescence-based cell-based dose response assay for partial agonists of the peroxisome proliferator-activated receptor alpha (PPARA). [Related pubchem assays (depositor defined):AID1051, AID1300, AID1319, AID1679, AID1808, AID504446, AID504447, AID504452, AID504453, AID631]; type: functional
[10] = target: T2, Tyrosine-protein phosphatase non-receptor type 7 (Homo sapiens, UniProt P35236); type: functional
T2 sequence (P35236 whole entry): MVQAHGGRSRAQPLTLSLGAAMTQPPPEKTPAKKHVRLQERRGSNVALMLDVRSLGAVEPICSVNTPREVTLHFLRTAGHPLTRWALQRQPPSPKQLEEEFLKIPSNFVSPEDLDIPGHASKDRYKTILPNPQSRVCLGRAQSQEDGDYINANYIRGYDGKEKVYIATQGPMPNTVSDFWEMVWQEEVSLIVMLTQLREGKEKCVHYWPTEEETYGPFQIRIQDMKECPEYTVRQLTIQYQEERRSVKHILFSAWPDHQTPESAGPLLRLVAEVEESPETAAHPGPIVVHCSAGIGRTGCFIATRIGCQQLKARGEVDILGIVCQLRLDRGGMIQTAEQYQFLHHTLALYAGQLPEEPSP

[11] = target: T3, Tyrosine-protein phosphatase non-receptor type 22 (Homo sapiens, UniProt Q9Y2R2); type: functional
T3 sequence (Q9Y2R2 whole entry): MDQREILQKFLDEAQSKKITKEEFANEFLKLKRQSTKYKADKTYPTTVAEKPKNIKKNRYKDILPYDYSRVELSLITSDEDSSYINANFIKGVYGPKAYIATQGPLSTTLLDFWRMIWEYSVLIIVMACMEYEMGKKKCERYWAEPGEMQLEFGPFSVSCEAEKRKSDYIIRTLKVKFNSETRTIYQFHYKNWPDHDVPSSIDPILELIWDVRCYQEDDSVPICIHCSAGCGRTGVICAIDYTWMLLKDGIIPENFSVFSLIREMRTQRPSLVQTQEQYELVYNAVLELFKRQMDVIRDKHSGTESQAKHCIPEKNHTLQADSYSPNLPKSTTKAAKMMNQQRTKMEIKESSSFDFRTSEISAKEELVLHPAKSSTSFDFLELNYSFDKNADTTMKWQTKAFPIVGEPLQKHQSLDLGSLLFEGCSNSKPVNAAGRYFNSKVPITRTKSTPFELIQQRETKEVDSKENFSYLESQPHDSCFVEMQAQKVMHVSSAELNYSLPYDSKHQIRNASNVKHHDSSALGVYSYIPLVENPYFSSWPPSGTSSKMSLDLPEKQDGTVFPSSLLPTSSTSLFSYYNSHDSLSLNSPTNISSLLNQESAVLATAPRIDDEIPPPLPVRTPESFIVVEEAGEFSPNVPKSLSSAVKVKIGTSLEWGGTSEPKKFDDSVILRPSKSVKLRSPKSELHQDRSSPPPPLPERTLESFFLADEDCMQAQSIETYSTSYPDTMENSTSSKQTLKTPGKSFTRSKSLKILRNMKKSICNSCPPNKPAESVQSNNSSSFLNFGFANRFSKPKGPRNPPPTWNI

[12] = target: T3, Tyrosine-protein phosphatase non-receptor type 22; type: functional; remark: listed apart in the source
[13] = target: G-protein coupled receptor 55 (Homo sapiens, UniProt Q9Y2T6); test: GPR55 antagonists blocking LPI-driven arrestin recruitment, primary screen, imaging, U2OS, beta-arrestin-GFP, LPI agonist (AID 2013); type: functional;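 also: antagonist potency measured as reduced agonist-driven arrestin aggregation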
[14] = target: T4, Cannabinoid receptor 1 (Homo sapiens, UniProt P21554); test: SAR analysis of antagonists of the Cannabinoid Receptor 1 using an Image-Based Assay - Set 2. [Related pubchem assays (depositor defined):AID2013, AID2026]; type: functional
T4 sequence (P21554 whole entry): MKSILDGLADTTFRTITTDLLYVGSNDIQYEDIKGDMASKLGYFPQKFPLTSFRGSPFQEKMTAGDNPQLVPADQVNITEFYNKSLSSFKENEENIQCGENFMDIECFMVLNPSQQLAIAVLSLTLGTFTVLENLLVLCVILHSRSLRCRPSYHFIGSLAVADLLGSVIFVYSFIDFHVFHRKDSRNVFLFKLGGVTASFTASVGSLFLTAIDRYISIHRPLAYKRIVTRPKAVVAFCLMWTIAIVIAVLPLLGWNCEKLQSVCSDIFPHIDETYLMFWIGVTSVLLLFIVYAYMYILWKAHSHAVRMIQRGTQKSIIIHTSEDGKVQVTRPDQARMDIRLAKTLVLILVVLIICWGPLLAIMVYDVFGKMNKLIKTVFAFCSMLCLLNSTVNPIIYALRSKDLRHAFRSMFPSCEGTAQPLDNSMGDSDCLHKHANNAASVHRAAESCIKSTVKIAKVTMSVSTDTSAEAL

[15] = Luminescence Cell-Based Dose Retest to Confirm Inhibitors of Cancer Stem Cells. [Related pubchem assays (depositor defined):AID2717, AID2721]; type: functional; details: Homo sapiens
[16] = target: T5, G-protein coupled receptor 35 (Homo sapiens, UniProt Q9HC97); test: SAR analysis of Agonists of the GPR35 Receptor using an Image-Based Assay - Set 2. [Related pubchem assays (depositor defined):AID2013, AID2026]; type: functional
T5 sequence (Q9HC97 whole entry): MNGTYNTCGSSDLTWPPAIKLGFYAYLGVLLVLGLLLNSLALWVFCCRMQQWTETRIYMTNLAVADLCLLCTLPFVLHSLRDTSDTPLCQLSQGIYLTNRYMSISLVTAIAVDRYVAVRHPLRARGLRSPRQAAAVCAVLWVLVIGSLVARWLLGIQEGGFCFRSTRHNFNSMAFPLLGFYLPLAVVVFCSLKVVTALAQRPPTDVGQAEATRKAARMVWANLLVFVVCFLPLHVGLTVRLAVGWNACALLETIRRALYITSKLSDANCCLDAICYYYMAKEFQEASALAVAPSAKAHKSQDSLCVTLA

[17] = target: T6, Cannabinoid receptor 2 (Homo sapiens, UniProt P34972); test: SAR analysis of antagonists of the Cannabinoid Receptor 2 using an Image-Based Assay. [Related pubchem assays (depositor defined):AID2013, AID2026]; type: functional
T6 sequence (P34972 whole entry): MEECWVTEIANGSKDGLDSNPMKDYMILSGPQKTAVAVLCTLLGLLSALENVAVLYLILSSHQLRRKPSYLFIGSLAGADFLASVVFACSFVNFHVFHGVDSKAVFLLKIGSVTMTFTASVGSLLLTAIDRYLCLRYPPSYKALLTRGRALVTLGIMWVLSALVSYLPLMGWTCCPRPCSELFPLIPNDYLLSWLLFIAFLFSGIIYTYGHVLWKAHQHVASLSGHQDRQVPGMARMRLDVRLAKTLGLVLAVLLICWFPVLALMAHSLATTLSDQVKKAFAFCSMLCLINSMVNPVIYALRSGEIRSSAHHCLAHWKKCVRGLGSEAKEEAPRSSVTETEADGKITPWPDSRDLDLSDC

[18] = target: T4, Cannabinoid receptor 1; test: SAR analysis of agonists of the Cannabinoid Receptor 1 using an Image-Based Assay - Set 2. [Related pubchem assays (depositor defined):AID2013, AID2026]; type: functional
[19] = target: T5, G-protein coupled receptor 35; test: SAR analysis of Antagonists of the GPR35 Receptor using an Image-Based Assay - Set 3. [Related pubchem assays (depositor defined):AID2013, AID2026]; type: functional
[20] = target: T6, Cannabinoid receptor 2; test: SAR analysis of agonists of the Cannabinoid Receptor 2 using an Image-Based Assay. [Related pubchem assays (depositor defined):AID2013, AID2026]; type: functional
[21] = target: Intestinal-type alkaline phosphatase (Homo sapiens, UniProt P09923); test: activation of human intestinal alkaline phosphatase – biochemical, dose response (AID 488873); type: functional
Intestinal-type alkaline phosphatase (Homo sapiens, UniProt P09923), sequence (P09923 whole entry): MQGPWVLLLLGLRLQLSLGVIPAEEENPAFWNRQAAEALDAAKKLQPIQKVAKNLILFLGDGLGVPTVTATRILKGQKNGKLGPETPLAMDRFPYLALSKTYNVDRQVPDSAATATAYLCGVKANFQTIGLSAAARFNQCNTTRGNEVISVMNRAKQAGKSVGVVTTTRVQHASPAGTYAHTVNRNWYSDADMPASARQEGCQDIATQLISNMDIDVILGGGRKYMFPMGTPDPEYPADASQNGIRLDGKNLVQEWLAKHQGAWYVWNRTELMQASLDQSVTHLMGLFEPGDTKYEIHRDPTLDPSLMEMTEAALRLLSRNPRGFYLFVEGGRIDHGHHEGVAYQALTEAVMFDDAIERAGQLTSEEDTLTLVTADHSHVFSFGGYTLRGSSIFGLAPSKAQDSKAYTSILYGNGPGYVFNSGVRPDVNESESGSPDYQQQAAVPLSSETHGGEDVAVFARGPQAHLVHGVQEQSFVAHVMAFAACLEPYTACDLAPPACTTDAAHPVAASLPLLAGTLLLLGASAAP

[22] = target: Intestinal-type alkaline phosphatase (Mus musculus, UniProt P24822); test: PubChem AID 488785; type: functional
[23] = target: T7, Alkaline phosphatase, tissue-nonspecific isozyme (Homo sapiens, UniProt P05186); test: TNAP enzyme inhibition by screening hits, dose response, selectivity assay for mouse IAP inhibitor project, biochemical, human TNAP, uHTS hits (AID 488906); type: functional
T7 sequence (P05186 whole entry): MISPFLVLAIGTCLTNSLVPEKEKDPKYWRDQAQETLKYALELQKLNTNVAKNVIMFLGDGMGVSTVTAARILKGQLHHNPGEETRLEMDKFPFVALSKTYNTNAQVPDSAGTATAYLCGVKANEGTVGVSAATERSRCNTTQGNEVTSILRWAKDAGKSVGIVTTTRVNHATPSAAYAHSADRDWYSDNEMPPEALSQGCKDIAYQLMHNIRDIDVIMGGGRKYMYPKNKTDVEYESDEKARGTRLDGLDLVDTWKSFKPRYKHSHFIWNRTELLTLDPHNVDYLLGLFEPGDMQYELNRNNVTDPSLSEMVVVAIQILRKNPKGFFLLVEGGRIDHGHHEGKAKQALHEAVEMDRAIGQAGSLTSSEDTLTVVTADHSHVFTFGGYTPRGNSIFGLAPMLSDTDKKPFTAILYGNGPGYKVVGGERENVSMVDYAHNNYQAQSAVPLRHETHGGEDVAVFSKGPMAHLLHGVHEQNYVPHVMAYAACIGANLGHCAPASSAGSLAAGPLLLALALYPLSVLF

[24] = target: Albumin (Bos taurus, UniProt P02769); test: Counterscreen for inhibitors of T-cell receptor (TCR)-CD3 interaction: Fluorescence-based biochemical high throughput dose response assay to identify inhibitors of T-cell receptor (TCR)-CD3 interaction using a TAMRA-labeled BSA probe.; type: functional
Albumin, sequence (P02769 whole entry): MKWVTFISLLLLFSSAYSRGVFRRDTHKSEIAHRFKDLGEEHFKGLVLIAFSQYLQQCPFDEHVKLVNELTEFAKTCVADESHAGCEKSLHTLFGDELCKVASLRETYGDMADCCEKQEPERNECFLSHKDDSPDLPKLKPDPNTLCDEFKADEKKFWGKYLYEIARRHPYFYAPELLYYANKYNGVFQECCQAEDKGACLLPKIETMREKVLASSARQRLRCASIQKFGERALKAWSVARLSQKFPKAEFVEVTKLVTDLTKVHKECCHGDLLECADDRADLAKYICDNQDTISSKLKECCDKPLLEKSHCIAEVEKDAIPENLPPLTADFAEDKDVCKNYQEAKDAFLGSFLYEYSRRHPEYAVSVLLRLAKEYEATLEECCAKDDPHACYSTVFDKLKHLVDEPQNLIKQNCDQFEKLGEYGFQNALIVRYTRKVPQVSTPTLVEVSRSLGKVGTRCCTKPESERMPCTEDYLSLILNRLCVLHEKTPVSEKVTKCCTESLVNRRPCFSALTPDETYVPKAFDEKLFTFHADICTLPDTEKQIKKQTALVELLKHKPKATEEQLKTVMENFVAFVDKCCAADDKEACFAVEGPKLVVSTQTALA

[25] = target: Glucose-6-phosphate 1-dehydrogenase (Homo sapiens, UniProt P11413); test: human G6PD enzyme inhibitors, dose response, selectivity assay for P. falciparum G6PD inhibitor project, biochemical, fluorescence (AID 504792); type: functional
Glucose-6-phosphate 1-dehydrogenase, sequence (P11413 whole entry): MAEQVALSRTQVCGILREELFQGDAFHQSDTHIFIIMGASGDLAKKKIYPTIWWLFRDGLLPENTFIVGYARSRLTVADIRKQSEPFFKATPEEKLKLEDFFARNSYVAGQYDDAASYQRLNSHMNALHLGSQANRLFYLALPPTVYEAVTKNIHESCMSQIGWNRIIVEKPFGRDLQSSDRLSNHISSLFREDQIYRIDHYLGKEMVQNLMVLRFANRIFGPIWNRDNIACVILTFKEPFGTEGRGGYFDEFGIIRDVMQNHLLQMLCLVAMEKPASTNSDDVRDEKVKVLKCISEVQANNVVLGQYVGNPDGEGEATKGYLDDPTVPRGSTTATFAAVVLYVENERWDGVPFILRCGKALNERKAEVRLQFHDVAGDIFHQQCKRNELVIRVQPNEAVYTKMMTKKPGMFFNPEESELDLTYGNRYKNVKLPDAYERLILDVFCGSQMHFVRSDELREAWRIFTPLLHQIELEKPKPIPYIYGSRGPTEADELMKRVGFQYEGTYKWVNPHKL

[26] = target: C-C chemokine receptor type 6 (Homo sapiens, UniProt P51684); test: CCR6 receptor antagonists, dose response, cell-based, luminescent beta-arrestin readout (AID 504728); type: functional
C-C chemokine receptor type 6, sequence (P51684 whole entry): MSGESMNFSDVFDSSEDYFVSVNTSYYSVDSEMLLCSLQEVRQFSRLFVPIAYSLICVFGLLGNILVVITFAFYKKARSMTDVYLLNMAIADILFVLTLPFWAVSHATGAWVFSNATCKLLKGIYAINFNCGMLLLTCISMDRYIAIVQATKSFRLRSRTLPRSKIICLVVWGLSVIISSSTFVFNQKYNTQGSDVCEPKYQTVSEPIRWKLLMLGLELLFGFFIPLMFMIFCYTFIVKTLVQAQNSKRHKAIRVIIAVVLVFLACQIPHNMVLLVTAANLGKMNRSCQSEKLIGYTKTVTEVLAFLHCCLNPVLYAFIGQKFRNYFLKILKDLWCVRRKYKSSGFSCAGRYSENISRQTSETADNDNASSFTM

[27] = target: T8, Hexokinase HKDC1 (Homo sapiens, UniProt Q2TB90); test: HKDC1 hexokinase activators, dose response, biochemical, W721R variant (AID 504730); type: functional
T8 sequence (Q2TB90 whole entry): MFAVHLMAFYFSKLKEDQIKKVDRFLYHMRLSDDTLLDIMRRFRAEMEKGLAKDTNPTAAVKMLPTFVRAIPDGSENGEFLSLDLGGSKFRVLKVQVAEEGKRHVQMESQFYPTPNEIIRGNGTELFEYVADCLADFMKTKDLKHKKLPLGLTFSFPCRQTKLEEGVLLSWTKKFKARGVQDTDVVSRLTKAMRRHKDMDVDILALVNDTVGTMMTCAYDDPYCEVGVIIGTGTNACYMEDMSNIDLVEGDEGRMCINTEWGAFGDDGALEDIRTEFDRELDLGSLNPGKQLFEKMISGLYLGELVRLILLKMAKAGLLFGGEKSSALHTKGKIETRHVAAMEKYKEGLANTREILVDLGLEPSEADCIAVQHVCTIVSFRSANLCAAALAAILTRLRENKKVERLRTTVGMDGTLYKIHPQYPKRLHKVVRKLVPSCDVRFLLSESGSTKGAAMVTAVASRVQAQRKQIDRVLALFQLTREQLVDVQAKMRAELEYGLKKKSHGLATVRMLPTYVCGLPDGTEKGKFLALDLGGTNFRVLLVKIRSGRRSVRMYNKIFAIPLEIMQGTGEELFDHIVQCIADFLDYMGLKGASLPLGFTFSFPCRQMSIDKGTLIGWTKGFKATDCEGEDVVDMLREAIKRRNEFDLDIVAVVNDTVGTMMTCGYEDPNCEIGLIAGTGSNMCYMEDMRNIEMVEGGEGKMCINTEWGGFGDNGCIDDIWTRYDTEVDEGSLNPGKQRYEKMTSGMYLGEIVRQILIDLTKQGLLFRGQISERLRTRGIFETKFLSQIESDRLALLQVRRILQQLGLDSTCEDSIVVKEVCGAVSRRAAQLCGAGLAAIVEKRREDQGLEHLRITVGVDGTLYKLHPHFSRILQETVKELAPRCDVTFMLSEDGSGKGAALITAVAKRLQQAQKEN

[28] = target: Beta-galactosidase (Escherichia coli, UniProt Q8VNN2); test: beta-galactosidase enzyme inhibitors and activators, dose response, artefact control for CCR6 antagonist project, biochemical, E. coli enzyme, set 3 (AID 504712); type: functional
[29] = target: Hexokinase-1 (Homo sapiens, UniProt P19367); test: hexokinase 1 activators, dose response, selectivity assay for HKDC1 activator project, biochemical (AID 504762); type: functional
Hexokinase-1, sequence (P19367 whole entry): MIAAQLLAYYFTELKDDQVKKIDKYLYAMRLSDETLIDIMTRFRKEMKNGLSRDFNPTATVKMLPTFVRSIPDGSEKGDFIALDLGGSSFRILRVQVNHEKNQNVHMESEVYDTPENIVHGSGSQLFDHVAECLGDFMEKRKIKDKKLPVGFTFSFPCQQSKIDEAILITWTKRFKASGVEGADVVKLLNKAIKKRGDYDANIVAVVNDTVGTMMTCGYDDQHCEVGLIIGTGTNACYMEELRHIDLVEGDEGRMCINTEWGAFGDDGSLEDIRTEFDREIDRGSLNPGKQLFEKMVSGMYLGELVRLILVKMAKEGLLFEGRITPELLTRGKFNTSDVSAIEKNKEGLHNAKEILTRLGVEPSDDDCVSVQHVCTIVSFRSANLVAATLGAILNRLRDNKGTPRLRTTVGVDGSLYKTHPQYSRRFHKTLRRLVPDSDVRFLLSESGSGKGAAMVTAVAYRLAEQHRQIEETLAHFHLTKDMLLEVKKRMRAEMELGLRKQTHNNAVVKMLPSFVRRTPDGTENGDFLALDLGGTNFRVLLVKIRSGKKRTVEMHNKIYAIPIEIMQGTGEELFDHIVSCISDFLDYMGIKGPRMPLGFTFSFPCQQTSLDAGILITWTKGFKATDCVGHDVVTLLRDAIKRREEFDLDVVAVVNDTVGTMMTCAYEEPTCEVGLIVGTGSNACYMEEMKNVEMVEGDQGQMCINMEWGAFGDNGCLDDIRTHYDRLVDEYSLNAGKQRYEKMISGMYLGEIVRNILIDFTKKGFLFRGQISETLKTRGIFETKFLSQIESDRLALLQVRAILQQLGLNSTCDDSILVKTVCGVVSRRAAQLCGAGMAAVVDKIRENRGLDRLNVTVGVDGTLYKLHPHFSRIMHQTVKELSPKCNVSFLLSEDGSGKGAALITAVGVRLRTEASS

[30] = target: Heat shock protein HSP 90-alpha (Homo sapiens, UniProt P07900); type: functional, organism-based
[31] = Fluorescence-based cell-based high throughput dose response assay for inhibitors of the interaction of nucleotide-binding oligomerization domain containing 2 (NOD2) and the receptor-interacting serine-threonine kinase 2 (RIPK2).; type: functional; details: Homo sapiens
[32] = target: Beta Lactamase (Pseudomonas aeruginosa, UniProt Q932Y6); test: beta-lactamase reporter inhibitor potency, dose response, artefact control for NOD2-RIPK2 interaction inhibitor project, BLA reporter cells, FRET fluorescence (AID 651552); type: functional, cell-based
Beta Lactamase, sequence (Q932Y6 whole entry): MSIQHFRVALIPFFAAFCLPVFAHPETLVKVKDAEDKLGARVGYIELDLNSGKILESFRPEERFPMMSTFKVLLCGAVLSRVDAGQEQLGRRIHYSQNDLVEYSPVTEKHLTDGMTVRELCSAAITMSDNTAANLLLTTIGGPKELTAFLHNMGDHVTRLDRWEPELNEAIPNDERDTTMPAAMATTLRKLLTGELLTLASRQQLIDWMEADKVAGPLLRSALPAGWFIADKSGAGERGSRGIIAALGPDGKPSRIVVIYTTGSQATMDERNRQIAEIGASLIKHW

Compound: O=C1C(=O)N(C/C=C/c2ccccc2)c2ccccc21
- EC50 [1]: 8.22 µM (inconclusive)
- EC50 [2]: > 150 µM (not active)
- EC50 [3]: 14.9 µM (active)
- EC50 [4]: 39.8 µM (active)
- AC50 [5]: 1.92 µM (active)
- AC50 [6]: 64.6 µM (active)
- AC50 [7]: 5.17 µM (active)

Compound: CCOc1cccc(/C=C2/SC(=S)N(CCC(=O)O)C2=O)c1
- EC50 [8]: 2.6 µM (active)
- EC50 [9]: > 3 µM (inactive)

Compound: CC(C)n1c(C(=O)OCC(=O)NCc2ccc3c(c2)OCO3)cc2occc21
- IC50 [10]: > 79.4 µM (inactive)
- IC50 [11]: > 79.4 µM (inactive)
- IC50 [12]: > 79.4 µM (inactive)

Compound: Cc1cc(OCC(=O)Nc2ccc(S(=O)(=O)NC3=NCCCCC3)cc2)c(C(C)C)cc1Cl
- IC50 [13]: 1.08 µM (active)
- IC50 [14]: 3.16 µM (active)
- AC50 [15]: 6.13 µM (active)
- EC50 [16]: > 32 µM (inactive)
- IC50 [17]: > 32 µM (inactive)
- EC50 [18]: > 32 µM (inactive)
- IC50 [19]: > 32 µM (inactive)
- EC50 [20]: > 32 µM (inactive)

Compound: O=C(NNC(=S)NC(=O)c1cccs1)c1ccc(O)cc1
- EC50 [21]: > 100 µM (inactive)
- IC50 [22]: 11.9 µM (active)
- IC50 [23]: > 100 µM (inactive)
- IC50 [24]: > 94 µM (inactive)

Compound: COC(=O)C1=C(C(=O)OC)SC2(S1)C(C(=O)OC)=C(C(=O)OC)Sc1c2ssc1=O
- IC50 [25]: > 80 µM (inactive)
- IC50 [26]: 28.5 µM (inactive)
- EC50 [27]: 33.1 µM (inactive)
- IC50 [28]: > 66.6 µM (inactive)
- EC50 [29]: 49.6 µM (inactive)
- AC50 [30]: 4.21 µM (active)
- IC50 [31]: 0.727 µM (active)
- IC50 [32]: 14.1 µM (inactive)
